The values that follow come from US12410160B2 (Gilead Sciences, Inc., priority 2021, dated 2025).

The nature of data set [1]: pKa analysis by capillary electrophoresis (pKa PRO Analyzer, co-solvent method). It counts as physicochemical. Conditions: methanol/aqueous co-solvent buffers, co-solvent method (60% to 30% methanol buffers). The gist of the method: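 Capillary electrophoresis by the co-solvent method, with 100 μM compound and 1% DMSO in 2 mM HCl or NaOH at 60% methanol.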
Data set [2] deals with human KHK-C (Homo sapiens (Human), UniProt P50053). Nature of the data set: KHK Biochemical Assay (IC50), ADP-Glo, KHK-C. Conditions: average of at least two separate assays. A digest of the protocol:
(§1)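 Luminescent ADP-Glo read-out of ADP made by His-tagged KHK (BL21 (DE3) expression, Ni-NTA). Enzyme and compound sat together 30 min before ATP/fructose addition, then reacted 4 h at RT in Hepes pH 7.4 buffer with KCl, MgCl2, Triton-X. Quench 1 h, detection 1 h.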

The target in data set [3] is human KHK-A (Homo sapiens (Human), UniProt P50053). Nature of the data set: KHK Biochemical Assay (IC50), ADP-Glo, KHK-A. Conditions: average of at least two separate assays. The gist of the method: as §1
Data set [4] has as its system HepG2 cells. Nature of the data set: F1P Cell-Based Assay (EC50), 13C6-fructose-1-phosphate in HepG2 cells (cell culture medium or 50% human plasma). Conditions: Homo sapiens.
Data set [5] addresses T1, human OATP1B1 (Homo sapiens (Human), UniProt Q9Y6L6). Kind of data set: In Vitro Inhibition Assessment with Human OATP1B1 Transporter. The data set is classed as in vitro ADME. Conditions: HEK293-OATP1B1 cells, probe substrate pravastatin. A digest of the protocol: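 HEK293-OATP1B1 and mock cells were preincubated 15 min with compound in HBSS. They were then coincubated 5 min with compound plus pravastatin (0.4% DMSO final), and intracellular substrate was quantified by LC-MS/MS. Mock-corrected uptake relative to solvent gave percentage activity, from which IC50 was fitted.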

Data set [6] has as its target KHK-C expressed in NRK-52E cells (Homo sapiens (Human), UniProt P50053). Kind of data set: KHK-C Cell-based Assay (EC50), NRK CTG, fructose-mediated ATP-depletion.
Data set [7] deals with T1, human OATP1B1. Kind of data set: In Vitro Substrate Assessment with Human OATP1B1 Transporter. It counts as in vitro ADME. Conditions: HEK293-OATP1B1 vs mock cells; substrate if uptake ≥2-fold of mock and decreased by ≥30% with known OATP inhibitor. An excerpt: In Vitro Substrate Assessment with Human OATP1B1 and OATP1B3 Transporters
The purpose of this assay was to assess whether test articles (TAs), were substrates for the hepatic uptake transporters organic anion transporting polypeptide (OATP) 1B1 (SLCO1B1) and 1B3 (SLCO1B3) using non-transfected (Mock) and transfected human embryonic kidney (HEK293) cells. […] On assay day, media were removed from the assay plates and cells were washed with Hanks' Balanced Salt Solution (HBSS Buffer) (Corning, Cat. #21-023-CV). Cells were preincubated with HBSS buffer with or without known OATP inhibitors for 30 minutes. […] The incubation period was 2 minutes. Cells were then washed three times with ice cold HBSS buffer and then were immediately extracted with methanol:water (70:30 v:v) containing internal standard labetolol (30 nM). The supernatants were evaporated to dryness on injection plates and reconstituted in 80% water containing 20% acetonitrile and 0.1% formic acid for analysis by liquid chromatography with tandem mass spectrometry (LC-MS-MS).
The rate of uptake into cells was determined by the following formula: Rate of uptake=(A*B)/(C*D)
• A: concentration of compound in cell lysate • B: volume of sample • C: Incubation time • D: millions of cells in sample
A TA was considered a substrate for OATP transporter if: (1) the rate of uptake in the transporter transfected cells was ≥2-fold of the rate of uptake in the mock cells; and (2) the rate of uptake in the transporter transfected cells was decreased by ≥30% in the presence of a known OATP inhibitor.

[8] abbreviates: pH range 1.7-11.2, read-out: 1st pKa.
[9] abbreviates: HepG2, HepG2 cells, 50% human plasma, read-out: F1P 50% HP EC50.
Where [10] appears, read: HepG2, read-out: F1P 10% FBS EC50, HepG2 cells, cell culture medium (10% FBS).
The mark [11] stands for this setting: pH range 1.7-11.2, read-out: 2nd pKa.

SMILES strings stand for the structures. Where two headings read alike, the source gives them in different places.

Chain of KHK-C expressed in NRK-52E cells (P50053 whole entry): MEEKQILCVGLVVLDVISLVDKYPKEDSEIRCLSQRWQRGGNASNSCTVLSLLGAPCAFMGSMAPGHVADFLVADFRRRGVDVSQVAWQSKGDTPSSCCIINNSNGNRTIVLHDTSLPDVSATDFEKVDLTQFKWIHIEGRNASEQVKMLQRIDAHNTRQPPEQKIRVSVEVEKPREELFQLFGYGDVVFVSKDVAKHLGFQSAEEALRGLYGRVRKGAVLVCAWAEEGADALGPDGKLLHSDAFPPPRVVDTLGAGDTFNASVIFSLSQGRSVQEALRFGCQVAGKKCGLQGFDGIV
Chain of human KHK-C (P50053 whole entry): as above
T1 sequence (Q9Y6L6 whole entry): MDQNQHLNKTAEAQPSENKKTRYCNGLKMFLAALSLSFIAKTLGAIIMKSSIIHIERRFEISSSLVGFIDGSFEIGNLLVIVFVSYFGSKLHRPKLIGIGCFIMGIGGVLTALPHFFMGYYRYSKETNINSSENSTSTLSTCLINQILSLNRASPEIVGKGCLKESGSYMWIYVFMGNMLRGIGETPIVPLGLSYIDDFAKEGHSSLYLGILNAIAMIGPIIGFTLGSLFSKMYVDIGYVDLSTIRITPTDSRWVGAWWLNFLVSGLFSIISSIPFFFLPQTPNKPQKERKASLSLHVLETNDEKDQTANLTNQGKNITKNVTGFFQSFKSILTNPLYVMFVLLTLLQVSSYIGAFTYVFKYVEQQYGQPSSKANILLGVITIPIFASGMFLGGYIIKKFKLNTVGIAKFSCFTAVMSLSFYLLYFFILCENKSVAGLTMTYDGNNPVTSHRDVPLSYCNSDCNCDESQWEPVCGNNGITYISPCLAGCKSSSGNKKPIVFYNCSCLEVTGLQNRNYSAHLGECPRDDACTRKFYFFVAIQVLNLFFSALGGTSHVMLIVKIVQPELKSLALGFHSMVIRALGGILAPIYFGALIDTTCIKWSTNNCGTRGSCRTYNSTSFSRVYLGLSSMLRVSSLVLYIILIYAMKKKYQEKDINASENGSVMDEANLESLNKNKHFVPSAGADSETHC
Chain of human KHK-A (P50053 other isoform, or with tags, fused parts or gaps): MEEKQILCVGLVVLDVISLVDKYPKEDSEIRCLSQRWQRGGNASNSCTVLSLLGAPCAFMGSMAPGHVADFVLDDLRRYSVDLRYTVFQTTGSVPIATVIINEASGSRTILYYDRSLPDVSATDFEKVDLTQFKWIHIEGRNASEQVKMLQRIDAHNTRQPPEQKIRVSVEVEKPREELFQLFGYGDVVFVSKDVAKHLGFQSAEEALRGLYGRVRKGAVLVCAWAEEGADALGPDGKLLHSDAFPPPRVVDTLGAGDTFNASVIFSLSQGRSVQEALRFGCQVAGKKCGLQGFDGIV

On to `C[C@H]1[C@H](O)CN1c1nc(-c2cccc([S@@](C)(=N)=O)c2)c2c(n1)C(F)(F)CC2` (single isomer, unassigned) [Example 492], for which the pKa in data set [1] (setting [8]) amounted to 2.1. For the same compound, the values for the IC50 in data set [2], in data set [3] and in data set [5] were 9 nM, 12.2 nM and 31700 nM, respectively. Also, the EC50 amounted to 22.2 nM in data set [4] (setting [9]), 20.7 nM in data set [4] (setting [10]) and 41.8 nM in data set [6].
For `COc1ccc(-c2nc(N3C[C@@H](O)[C@@H]3C)nc3c2CCC3(F)F)cc1[S@@](C)(=N)=O` (single isomer, unassigned) [Example 495], the pKa in data set [1] (setting [8]) was 2.5. For the same compound, the IC50 was 1.5 nM in data set [2], 0.7 nM in data set [3] and above 40000 nM in data set [5]. Further, the EC50 worked out at 2.3 nM in data set [4] (setting [9]), 1.1 nM in data set [4] (setting [10]) and 16 nM in data set [6].
For `NC1(c2ccc(-c3nc(N4CC[C@@H]4C(F)F)nc4c3CCC4(F)F)cc2)COC1` (single isomer, unassigned) [Example 687], in data set [1] (setting [8]), the pKa amounted to 6. Moreover, the IC50 was 1.2 nM in data set [2], 2.8 nM in data set [3] and 6550 nM in data set [5]. Also, the EC50 came to 7.6 nM in data set [4] (HepG2, read-out: F1P 10% FBS EC50); 14.6 nM in data set [4] (HepG2, read-out: F1P 50% HP EC50); 6.2 nM in data set [6].
In the case of `C[C@H]1CCN1c1nc2c(c(-c3cccc(C(N)=O)c3)n1)CCC2` [Example 8, (S)-3-(2-(2-methylazetidin-1-yl)-6,7-dihydro-5H-cyclopenta[d]pyrimidin-4-yl)benzamide], the pKa in data set [1] (setting [8]) is 4.38. Besides, the results for the IC50 in data set [2] (ADP-Glo), in data set [3] (ADP-Glo) and in data set [5] were 48.1 nM, 38.8 nM and 1320 nM, respectively. In addition, the EC50 in data set [6] is 128 nM.
For the compound `C[C@H]1CCN1c1nc2c(c(-c3ccc(CN)cc3)n1)CCC2` [Example 188, [4-[2-[(2S)-2-methylazetidin-1-yl]-6,7-dihydro-5H-cyclopenta[d]pyrimidin-4-yl]phenyl]methanamine], the pKa in data set [1] (setting [8]) came out at 4.27; in data set [1] (setting [11]), 9.27. Besides, the IC50 in data set [2] (ADP-Glo) stood at 2.1 nM; in data set [3] (ADP-Glo) it was 4.2 nM; in data set [5], 10200 nM. Also, the midpoint of the response in data set [6], the EC50, lay at 177 nM.
In the case of `C[C@H]1CCN1c1nc2c(c(-c3ccc4c(=O)[nH]ccc4c3)n1)CCC2` [Example 364, 6-[2-[(2S)-2-methylazetidin-1-yl]-6,7-dihydro-5H-cyclopenta[d]pyrimidin-4-yl]-2H-isoquinolin-1-one], the pKa in data set [1] (setting [8]) stood at 4.32. For the same compound, the IC50 in data set [2] (ADP-Glo) stood at 3.3 nM; in data set [3] (ADP-Glo), 10 nM; in data set [5], 38.9 nM. This compound also yielded an EC50 in data set [6] of 13.1 nM.
In the case of `C[C@H]1CCN1c1nc2c(c(-c3ccc4c(N)nccc4c3)n1)CCC2` [Example 378, 6-[2-[(2S)-2-methylazetidin-1-yl]-6,7-dihydro-5H-cyclopenta[d]pyrimidin-4-yl]isoquinolin-1-amine], the pKa stood at 3.29 in data set [1] (setting [8]) and 6.64 in data set [1] (setting [11]). In addition, the IC50 in data set [2] (ADP-Glo) is 1 nM; in data set [3] (ADP-Glo), 3.4 nM; in data set [5], 1690 nM. The concentration giving a half-maximal response (EC50) in data set [6] came out at 7.7 nM.
As for `C[C@H]1CCN1c1nc2c(c(-c3ccc(CN)s3)n1)CCC2` [Example 459, [5-[2-[(2S)-2-methylazetidin-1-yl]-6,7-dihydro-5H-cyclopenta[d]pyrimidin-4-yl]-2-thienyl]methanamine], the pKa in data set [1] (setting [8]) came out at 4.27; in data set [1] (setting [11]), 8.65. Further, the figures for the IC50 in data set [2], in data set [3] and in data set [5] were 6.6 nM, 11.1 nM and 13200 nM, respectively. The compound also displayed an EC50 in data set [6] of 42.1 nM.
As for `C[C@H]1[C@H](O)CN1c1nc(-c2ccc3c(c2)OC[C@@H]3NS(C)(=O)=O)c2c(n1)C(F)(F)CC2` [Example 466, N—((R)-6-(7,7-difluoro-2-((2S,3R)-3-hydroxy-2-methylazetidin-1-yl)-6,7-dihydro-5H-cyclopenta[d]pyrimidin-4-yl)-2,3-dihydrobenzofuran-3-yl)methanesulfonamide], the pKa in data set [1] (setting [8]) worked out at 10.3. Besides, the 50% inhibitory concentration (IC50) in data set [2] turned out to be 0.5 nM; in data set [3], 4 nM; in data set [5], 3010 nM. For the same compound, the results for the EC50 in data set [4] (setting [9]), in data set [4] (setting [10]) and in data set [6] were 20.5 nM, 7.3 nM and 11.4 nM, respectively.
On to `NC1(c2ccc(-c3nc(N4CC[C@@H]4CF)nc4c3CCC4(F)F)cc2)COC1` [Example 471, (R)-3-(4-(7,7-difluoro-2-(2-(fluoromethyl)azetidin-1-yl)-6,7-dihydro-5H-cyclopenta[d]pyrimidin-4-yl)phenyl)oxetan-3-amine], for which, in data set [1] (setting [8]), the pKa is 6.1. Further, the figures for the IC50 in data set [2], in data set [3] and in data set [5] were 2 nM, 7 nM and 23300 nM, respectively. In addition, the figures for the EC50 in data set [4] (setting [9]), in data set [4] (setting [10]) and in data set [6] were 13.2 nM, 8.4 nM and 6.4 nM, respectively.
As to `C[C@H]1[C@H](O)CN1c1nc(-c2ccc(C3(N)CS(=O)(=O)C3)cc2)c2c(n1)C(F)(F)CC2` [Example 491], the pKa in data set [1] (setting [8]) amounted to 4.5. The IC50 in data set [2] was 2 nM; in data set [3], 24.2 nM; in data set [5] it was 36000 nM. In addition, the EC50 in data set [4] (setting [9]) is 26.2 nM; in data set [4] (setting [10]), 31.9 nM; in data set [6], 35.8 nM.
For `C[C@H]1[C@H](O)CN1c1nc(-c2ccc(C3(N)CC(F)(F)C3)cc2)c2c(n1)C(F)(F)CC2` [Example 646, (2S,3R)-1-[4-[4-(1-amino-3,3-difluoro-cyclobutyl)phenyl]-7,7-difluoro-5,6-dihydrocyclopenta[d]pyrimidin-2-yl]-2-methyl-azetidin-3-ol], the pKa in data set [1] (setting [8]) was found to be 6.6. Further, the IC50 in data set [2] was found to be 2.7 nM; in data set [5], 5010 nM. Also, the EC50 was 22.4 nM in data set [4] (setting [9]), 14.3 nM in data set [4] (setting [10]) and 7.4 nM in data set [6].
Take `NC1(c2ccc(-c3nc(N4CC[C@@H]4C(F)(F)F)nc4c3CCC4(F)F)cc2)COC1` [Example 696, 3-[4-[7,7-difluoro-2-[(2R)-2-(trifluoromethyl)azetidin-1-yl]-5,6-dihydrocyclopenta[d]pyrimidin-4-yl]phenyl]oxetan-3-amine]: the pKa in data set [1] (setting [8]) came to 6.3. In addition, the IC50 in data set [2] amounted to 0.5 nM; in data set [3] it was 1 nM; in data set [5], 5410 nM. For the same compound, the EC50 was 6.8 nM in data set [4] (setting [9]), 1.7 nM in data set [4] (setting [10]) and 5.7 nM in data set [6].
Take `N#C[C@H]1CCN1c1nc(-c2ccc(C3(N)COC3)cc2)c2c(n1)C(F)(F)CC2` [Example 711, (R)-1-(4-(4-(3-aminooxetan-3-yl)phenyl)-7,7-difluoro-6,7-dihydro-5H-cyclopenta[d]pyrimidin-2-yl)azetidine-2-carbonitrile]: the pKa in data set [1] (setting [8]) came to 6.3. The IC50 in data set [2] worked out at 6.1 nM; in data set [5], 12800 nM. For the same compound, the values for the concentration giving a half-maximal response (EC50) in data set [4] (setting [9]), in data set [4] (setting [10]) and in data set [6] were 33.7 nM, 28.2 nM and 35.2 nM, respectively.
For the compound `C[C@H]1CCN1c1nc(N2C[C@@H]3[C@@H](CC(=O)O)[C@@H]3C2)cc(C(F)(F)F)n1` [Reference Compound 1, reference compound], the half-maximal inhibitory concentration (IC50) in data set [5] is 1190 nM. For the same compound, the “OATP1B1 Substrate” value in data set [7] is reported as “YES”.
The corresponding values for `C[C@H]1CCN1c1nc(N2CC[C@H](CC(=O)O)C2)cc(C(F)(F)F)c1C#N` [Reference Compound 2, 2-((R)-1-(5-cyano-6-((S)-2-methylazetidin-1-yl)-4-(trifluoromethyl)pyridin-2-yl)pyrrolidin-3-yl)acetic acid, reference compound] are 267 nM and “YES”.
